Test results reported in patent US20160199364A1, “SEIZURE TREATMENT COMPOSITIONS AND METHODS” (Creighton University, priority 2015, published 2016).

How the values were obtained:
[1] = system: spontaneous recurrent seizures in epileptic Kv1.1 knockout (KO) mice; test: Spontaneous recurrent seizures by 24 hr video-EEG (seizure incidence, seizure burden index); format: in vivo, mouse
Description: (§1) Dietary and pharmacological treatments. […] For dietary experiments involving Kv1.1WT and Kv1.1KO mice, drinking water contained either 0.0323% DMSO vehicle or GW9662 ([…]) to obtain an average dosage of 1.062±0.038 mg/kg/day (n=18). There was no difference in the average daily water consumption or resulting GW9662 dosage between experimental groups (see FIG. 2H). […] Three hours after the last pioglitazone injection, mice were euthanized and brains processed for western blot, electrophysiology, or mitochondria experiments.
Intracranial electroencephalography electrode implantation and seizure analysis. On P27, mice underwent surgical implantation of electrodes. Mice were maintained under isoflurane anesthesia and normothermic conditions. One ground (1.5 mm anterior lamba, 1.5 mm lateral) and two subdural (1 mm posterior Bregma, 1.5 mm bilateral) intracranial cortical electroencephalographic (iEEG) electrodes were implanted, secured, and attached to a headmount. […] EEG recordings were acquired with a 250 Hz sampling rate and band-pass filtered between 0.5 and 40 Hz. During seizure monitoring, mice were single-housed in hexagon cages. EEG recordings were imported into Spike2 v6-7 software (Cambridge Electronic Design, Cambridge, England) for initial seizure identification using time-frequency analysis. […] Incidence and severity of each seizure was scored for the first 15 minutes of each hour during the time period of highest seizure occurrence for Kv1.1KO mice (00:00-08:00). Seizure severity was scored using a modified Racine scale: 0—normal; 1—myoclonic jerk or “pop;” 2—side-to-side head movement; 3—forelimb/hindlimb clonus, tail extension, a single rearing event; 4—continuous rearing and falling; 5—severe tonic-clonic seizures. To weigh the incidence and severity of seizures, seizure burden index (SBI) scores were calculated using the equation: SBI=[Σ(σiγi)]/ε, where σ indicates the severity; i indicates each stage of seizure (1-5); γ is the incidence; and ε indicates the total number of epochs scored.

Body weight = format: in vivo, mouse; settings: pioglitazone 10 mg/kg/day i.p., five days; Kv1.1WT or Kv1.1KO mice
[2] = system: mitochondrial respiratory complex I (MRCI); test: Oxygen polarography of isolated cortical mitochondria after in vivo treatment; design: species or system mouse; settings: Kv1.1KO mice treated in vivo (pioglitazone 10 mg/kg/day i.p. or KD)
Description: as §1
Mitochondrial isolation and oxytherm polarography. Mice were anesthetized with isoflurane and cortical tissue was quickly micro-dissected on ice. Tissue was homogenized in isolation buffer (5×V/V in mM: 215 mannitol, 75 sucrose, 1 EGTA 20 HEPES and 0.1% BSA, pH 7.2 adjusted with KOH) and mitochondria were isolated using differential centrifugation. Isolated mitochondria were resuspended in isolation buffer without EGTA. Protein concentrations were determined with Bradford assay. […] Oxygen polarography was measured using a standard Clark-type electrode (Hanstech Instruments, Ltd., Norfolk, England). […] Only samples with a respiratory control ratio greater than 4 were analyzed. Unbiased assessment of the rate of oxygen consumption was determined using computer-generated line of best-fit algorithm and nmol of oxygen mg^−1 min^−1 was calculated.

[3] = system: hippocampal mossy fiber-CA3 synapse and CA3 network; test: Acute hippocampal slice multielectrode array recordings after in vivo treatment; design: species or system mouse; settings: Kv1.1KO mice treated in vivo (pioglitazone 10 mg/kg/day i.p. or KD), hippocampal slices
Description: as §1
Acute hippocampal slice preparation and multielectrode array recordings. […] Spontaneous and evoked extracellular potentials were recorded with Mobius v2 software (Witwerx Inc., Tustin, Calif., USA) and acquired at a 20 kHz sampling rate with a bandwidth of 0.1 Hz-10 kHz. Post-synaptic field potentials and short-term plasticity of the mossy fiber (MF)-CA3 synapse were obtained by successive paired stimulations (50 ms inter-stimulus interval, 50% maximal intensity) of Dentate granule cell mossy fibers located in the hilar region and recorded in CA3 stratum lucidum. Paired pulse facilitation was calculated by dividing the slope (10-90%) of stimulation 2 by the slope of stimulation 1 and presented as the percent above stimulation 1. […]

SMILES	KD anti-seizure efficacy ([1]; GW9662 ~1 mg/kg/day co-administered throughout KD treatment, Kv1.1KO mice)	Kv1.1KO seizures (worsening) ([1]; GW9662 ~1 mg/kg/day in drinking water, Kv1.1KO mice)	induction of spontaneous seizures in WT mice ([1]; GW9662 ~1 mg/kg/day in drinking water, WT mice)	body weight (Body weight)	improvement of mitochondrial respiration (MRCI State III) [2] [%]	attenuation of HFO (high frequency oscillation) incidence ([3]; CA3 network) [%]	increase of mossy fiber paired pulse facilitation [3] [%]
O=C(Nc1ccccc1)c1cc([N+](=O)[O-])ccc1Cl [GW9662]	prevented	did not worsen	did not				
CCc1ccc(CCOc2ccc(CC3SC(=O)NC3=O)cc2)nc1 (stereo not shown) [pioglitazone]				did not change	~80	~60	~45
